Measured values taken from PubChem BioAssay (NCI).
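Results reflect a 48-hour exposure of cells in 96-well plates to compound at five concentrations. GI50 = concentration required for 50% inhibition of growth. TGI marks complete inhibition of growth.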

Columns and labels:
Experiment in all cases: NCI anticancer screen, dose series, 48 h
SK-MEL-2 melanoma = system: SK-MEL-2 melanoma
786-0 renal = system: 786-0 renal
SK-OV-3 ovarian = system: SK-OV-3 ovarian
ACHN renal = system: ACHN renal
DMS 114 small cell lung = system: DMS 114 small cell lung
SF-268 CNS = system: SF-268 CNS
SF-295 CNS = system: SF-295 CNS
SK-MEL-5 melanoma = system: SK-MEL-5 melanoma
A498 renal = system: A498 renal
SNB-78 CNS = system: SNB-78 CNS
MCF7 breast = system: MCF7 breast

SMILES | TGI (SK-MEL-2 melanoma) | TGI (786-0 renal) | TGI (SK-OV-3 ovarian) | TGI (ACHN renal) | TGI (DMS 114 small cell lung) | TGI (SF-268 CNS) | TGI (SF-295 CNS) | TGI (SK-MEL-5 melanoma) | TGI (A498 renal) | TGI (SNB-78 CNS) | GI50 (SK-MEL-2 melanoma) | GI50 (SK-OV-3 ovarian) | GI50 (SNB-78 CNS) | GI50 (DMS 114 small cell lung) | GI50 (SF-295 CNS) | GI50 (SK-MEL-5 melanoma) | TGI (MCF7 breast)
CN(C)CCSC(=Nc1ccccc1)N1CCCCC1 | 31.3 µM | 30 µM | > 100 µM | 30.5 µM | 26.5 µM | 38.8 µM | > 100 µM | 29.8 µM | – | – | – | – | – | – | – | – | –
c1ccc2c(c1)nc(NC1CCCC1)c1[nH]c(C3CCCC3)nc12 | 19.1 µM | 20.7 µM | > 62.5 µM | > 75.6 µM | 35.4 µM | 47 µM | 32.8 µM | 17.1 µM | 43.1 µM | > 92.7 µM | – | – | – | – | – | – | –
N#C[S-].[Nd+3].c1ccc(-c2ccccn2)nc1.c1ccc(-c2ccccn2)nc1.c1ccc(-c2ccccn2)nc1 | 51.5 µM | – | > 100 µM | – | 67.1 µM | – | 5.8 µM | 4.77 µM | – | > 100 µM | 8.47 µM | 6.93 µM | 94.2 µM | 15.7 µM | 2.35 µM | 1.53 µM | –
COc1cccc(Cc2c3cc(OC)ccc3cc[n+]2C)c1 | > 100 µM | > 100 µM | – | > 100 µM | – | > 100 µM | > 100 µM | 65.4 µM | > 100 µM | > 100 µM | – | – | – | – | – | – | –
O=C1Nc2cc([N+](=O)[O-])ccc2NC1/C(=N\Nc1ccccc1)C(O)c1cccc([N+](=O)[O-])c1 (stereo unspecified) | > 100 µM | > 100 µM | > 100 µM | > 100 µM | > 100 µM | > 100 µM | > 100 µM | 45.1 µM | – | > 100 µM | – | – | – | – | – | – | –
C/C(=N\NC(N)=S)C(CN(CC(C)C)CC(C)C)C(=O)Nc1ccc(C)cc1C (stereo unspecified) | > 100 µM | > 100 µM | > 100 µM | > 100 µM | > 100 µM | > 100 µM | > 100 µM | > 100 µM | > 100 µM | > 100 µM | – | – | – | – | – | – | –
Cc1cc(S(=O)(=O)O)c(NC(=O)C(=O)C2C=CCS2(=O)=O)cc1Cl (stereo unspecified) | > 100 µM | > 100 µM | > 100 µM | > 100 µM | > 100 µM | > 100 µM | > 100 µM | > 100 µM | > 100 µM | > 100 µM | – | – | – | – | – | – | –
Cc1cccc(C2=NC(C)(C)C(C)(C)N=C2c2cccc(C)n2)n1 | > 100 µM | > 100 µM | > 100 µM | > 100 µM | > 100 µM | > 100 µM | > 100 µM | > 100 µM | > 100 µM | > 100 µM | – | – | – | – | – | – | –
CCCCOP1(=O)C=C(C)C(=C(Cl)Cl)C(C)=C1 (stereo unspecified) | 5.11 µM | 53 µM | 49.8 µM | 23.6 µM | 10.8 µM | 27.3 µM | 25.9 µM | > 32.9 µM | – | 6.04 µM | – | – | – | – | – | – | –
c1ccc2c(c1)CCc1cc3cc4c(nc3nc1-2)-c1ccccc1CC4 | – | > 100 µM | > 100 µM | > 100 µM | – | > 100 µM | > 100 µM | – | – | > 100 µM | – | – | – | – | – | – | –
NC(=S)Nc1[nH]c(=S)nc2c1SC1=N/C(=C\c3ccco3)C(=O)N12 | > 100 µM | > 100 µM | > 100 µM | > 100 µM | – | > 100 µM | > 100 µM | > 100 µM | > 100 µM | – | – | – | – | – | – | – | > 100 µM
C=C(C)C(=O)[C@@]12C(=O)[C@@H](C)CC[C@H]1[C@H](C)C[C@@H]2C=C(C)C | 26.7 µM | 42.4 µM | > 100 µM | 25.6 µM | – | 36 µM | > 100 µM | 45.1 µM | > 100 µM | – | – | – | – | – | – | – | 52.3 µM
C=C1C(=O)OCC2C(C(=O)O)=CC3C(C)C(C)=CC123 (stereo unspecified) | 15.1 µM | – | 79.5 µM | – | 33.8 µM | 32.8 µM | 49.1 µM | 27.3 µM | 18.2 µM | 117 µM | – | – | – | – | – | – | 23.9 µM
CC(CO)C1C[C@H](O)[C@@]2(C)CC(=O)C=C(CO)[C@@H]2C1 (stereo partly specified) | > 100 µM | > 100 µM | > 100 µM | > 100 µM | – | > 100 µM | > 100 µM | > 100 µM | > 100 µM | – | – | – | – | – | – | – | > 100 µM
COC(=O)/C=C(/C(=O)OC)c1c(C)c(C)c2c(C)cc(C)cc(C)c1-2 | > 100 µM | > 100 µM | 76.8 µM | > 100 µM | – | > 100 µM | > 100 µM | > 100 µM | > 100 µM | – | – | – | – | – | – | – | > 100 µM
O=C(CCCCCCCCC(=O)N1C(=O)CC(=O)N(c2cccc(Cl)c2)C1=S)N1C(=O)CC(=O)N(c2cccc(Cl)c2)C1=S | > 100 µM | > 100 µM | > 100 µM | > 100 µM | – | > 100 µM | > 100 µM | > 100 µM | > 100 µM | – | – | – | – | – | – | – | > 100 µM
